Assay results: PubChem BioAssay AID2060613 (Molecular Pharmacology Branch, DTP, NCI, 2025)
Several values for one entry are separate records, joined by “and”; a condition that tells them apart may be missing. Equal values may be shown once. Blank lines part the entries; values can stand above or below the molecule they belong to.

System: 233499-124-R-J3-PDC complex spheroid viability
Experiment: Anticancer human tumor 233499-124-R-J3-PDC patient-derived colon adenocarcinoma cell line growth inhibition [CLK]
Settings: for viability, T/C: stronger effect = lower value
Summary of the method: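 Patient-derived tumor cells grown as complex spheroids with HUVEC endothelial cells and mesenchymal stem cells, treated with drug combinations. Concentrations descend in half-log steps from near clinical Cmax, or from 10 microM if Cmax unknown.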

[1] = curve of first compound, second compound 0.0316 µM
[2] = curve of first compound, second compound 0.1 µM
[3] = curve of first compound, second compound 0.316 µM
[4] = curve of first compound, second compound 1 µM
[5] = curve of first compound, second compound 3.16 µM
[6] = curve of first compound, second compound 10 µM
[7] = second compound 0.0316 µM, first compound 0.0316 µM
[8] = second compound 0.0316 µM, first compound 0.1 µM
[9] = second compound 0.0316 µM, first compound 0.316 µM
[10] = second compound 0.0316 µM, first compound 1 µM
[11] = second compound 0.0316 µM, first compound 3.16 µM
[12] = second compound 0.0316 µM, first compound 10 µM
[13] = second compound 0.1 µM, first compound 0.0316 µM
[14] = second compound 0.1 µM, first compound 0.1 µM
[15] = second compound 0.1 µM, first compound 0.316 µM
[16] = second compound 0.1 µM, first compound 1 µM
[17] = second compound 0.1 µM, first compound 3.16 µM
[18] = second compound 0.1 µM, first compound 10 µM
[19] = second compound 0.316 µM, first compound 0.0316 µM
[20] = second compound 0.316 µM, first compound 0.1 µM
[21] = second compound 0.316 µM, first compound 0.316 µM
[22] = second compound 0.316 µM, first compound 1 µM
[23] = second compound 0.316 µM, first compound 3.16 µM
[24] = second compound 0.316 µM, first compound 10 µM
[25] = second compound 1 µM, first compound 0.0316 µM
[26] = second compound 1 µM, first compound 0.1 µM
[27] = second compound 1 µM, first compound 0.316 µM
[28] = second compound 1 µM, first compound 1 µM
[29] = second compound 1 µM, first compound 3.16 µM
[30] = second compound 1 µM, first compound 10 µM
[31] = second compound 3.16 µM, first compound 0.0316 µM
[32] = second compound 3.16 µM, first compound 0.1 µM
[33] = second compound 3.16 µM, first compound 0.316 µM
[34] = second compound 3.16 µM, first compound 1 µM
[35] = second compound 3.16 µM, first compound 3.16 µM
[36] = second compound 3.16 µM, first compound 10 µM
[37] = second compound 10 µM, first compound 0.0316 µM
[38] = second compound 10 µM, first compound 0.1 µM
[39] = second compound 10 µM, first compound 0.316 µM
[40] = second compound 10 µM, first compound 1 µM
[41] = second compound 10 µM, first compound 3.16 µM
[42] = second compound 10 µM, first compound 10 µM
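Further: spheroids exposed to the drug combinations for seven days.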
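Wherever viability, T/C is given: percent viability relative to DMSO vehicle control wells taken as 100%.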

SMILES: Nc1ccccc1NC(=O)c1ccc(CNC(=O)OCc2cccnc2)cc1
viability, T/C (compound 0.0316 µM): 91.4% and 90.3%
viability, T/C (compound 0.1 µM): 87.2% and 89.8%
viability, T/C (compound 0.316 µM): 74.4% and 96.3%
viability, T/C (compound 1 µM): 78% and 89.7%
viability, T/C (compound 3.16 µM): 32.4% and 33.4%
viability, T/C (compound 10 µM): 0.79% and 1.47%
IC50 (curve of compound): 2 µM and 2.25 µM

SMILES: COc1c(OCCCN2CCOCC2)ccc2c3n(c(=NC(=O)c4cnc(N)nc4)nc12)CCN3
viability, T/C (compound 0.00316 µM): 83%
viability, T/C (compound 0.01 µM): 86%
viability, T/C (compound 0.0316 µM): 88.8%
viability, T/C (compound 0.1 µM): 49.3%
viability, T/C (compound 0.316 µM): 34.4%
viability, T/C (compound 1 µM): 3.62%
IC50 (curve of compound): 0.141 µM

SMILES: Nc1ccn(C2OC(CO)C(O)C2(F)F)c(=O)n1 (stereo unspecified)
viability, T/C (compound 0.0316 µM): 100% and 98%
viability, T/C (compound 0.1 µM): 80.3% and 47.1%
viability, T/C (compound 0.316 µM): 39.9% and 22.4%
viability, T/C (compound 1 µM): 33.8% and 20.9%
viability, T/C (compound 3.16 µM): 38.9% and 21.9%
viability, T/C (compound 10 µM): 41.3% and 15.8%
IC50 (curve of compound): 0.237 µM and 0.0936 µM

SMILES: CC(=O)O[C@H]1C(=O)[C@@]2(C)[C@H]([C@H](OC(=O)c3ccccc3)[C@]3(O)C[C@H](OC(=O)[C@H](O)[C@@H](NC(=O)c4ccccc4)c4ccccc4)C(C)=C1C3(C)C)[C@]1(OC(C)=O)CO[C@@H]1C[C@@H]2O + CNC(=O)c1ccc(Nc2nc(OC3CCCC3)c3c(-c4ccc5nc(C)oc5c4)c[nH]c3n2)c(OC)c1
IC50 [1]: 0.14 µM
IC50 [2]: > 10 µM
IC50 [3]: > 10 µM
IC50 [4]: > 10 µM
IC50 [5]: > 10 µM
IC50 [6]: > 10 µM
viability, T/C [7]: 80%
viability, T/C [8]: 59.4%
viability, T/C [9]: 18.2%
viability, T/C [10]: 21.5%
viability, T/C [11]: 31.4%
viability, T/C [12]: 37.7%
viability, T/C [13]: 81.2%
viability, T/C [14]: 66%
viability, T/C [15]: 50.7%
viability, T/C [16]: 78.5%
viability, T/C [17]: 72.9%
viability, T/C [18]: 66.5%
viability, T/C [19]: 67.9%
viability, T/C [20]: 81%
viability, T/C [21]: 84.8%
viability, T/C [22]: 90.6%
viability, T/C [23]: 78.8%
viability, T/C [24]: 68.4%
viability, T/C [25]: 91.2%
viability, T/C [26]: 85.9%
viability, T/C [27]: 77.5%
viability, T/C [28]: 72.5%
viability, T/C [29]: 96.3%
viability, T/C [30]: 66.7%
viability, T/C [31]: 77%
viability, T/C [32]: 87.8%
viability, T/C [33]: 89.5%
viability, T/C [34]: 90.5%
viability, T/C [35]: 83.3%
viability, T/C [36]: 74.2%
viability, T/C [37]: 67.5%
viability, T/C [38]: 82.3%
viability, T/C [39]: 79.1%
viability, T/C [40]: 79%
viability, T/C [41]: 81.1%
viability, T/C [42]: 85.8%

Further lines, with some results ahead:

IC50 [1]: > 10 µM
IC50 [2]: > 10 µM
IC50 [3]: > 10 µM
IC50 [4]: > 10 µM
IC50 [5]: > 10 µM
IC50 [6]: > 10 µM
SMILES: C=CC(=O)N1CCN(c2nc(=O)n(-c3c(C)ccnc3C(C)C)c3nc(-c4c(O)cccc4F)c(F)cc23)C(C)C1 (stereo unspecified) + CNC(=O)c1ccc(Nc2nc(OC3CCCC3)c3c(-c4ccc5nc(C)oc5c4)c[nH]c3n2)c(OC)c1
viability, T/C [7]: 84.8%
viability, T/C [8]: 86.5%
viability, T/C [9]: 94.4%
viability, T/C [10]: 93.6%
viability, T/C [11]: 96.3%
viability, T/C [12]: 98.3%
viability, T/C [13]: 79.6%
viability, T/C [14]: 71.6%
viability, T/C [15]: 72.6%
viability, T/C [16]: 79.7%
viability, T/C [17]: 85.2%
viability, T/C [18]: 77.5%
viability, T/C [19]: 75.9%
viability, T/C [20]: 76.4%
viability, T/C [21]: 75.8%
viability, T/C [22]: 75.4%
viability, T/C [23]: 80.5%
viability, T/C [24]: 82.8%
viability, T/C [25]: 81.2%
viability, T/C [26]: 73.7%
viability, T/C [27]: 74.3%
viability, T/C [28]: 87.5%
viability, T/C [29]: 90%
viability, T/C [30]: 86.4%
viability, T/C [31]: 68.5%
viability, T/C [32]: 71.3%
viability, T/C [33]: 65.7%
viability, T/C [34]: 86.7%
viability, T/C [35]: 80.5%
viability, T/C [36]: 76.7%
viability, T/C [37]: 71.2%
viability, T/C [38]: 78.4%
viability, T/C [39]: 69.6%
viability, T/C [40]: 74.8%
viability, T/C [41]: 81%
viability, T/C [42]: 91.2%

IC50 (curve of compound): 6.15 µM and 6.78 µM
SMILES: CC1(C)CCC(CN2CCN(c3ccc(C(=O)NS(=O)(=O)c4ccc(NCC5CCOCC5)c([N+](=O)[O-])c4)c(Oc4cnc5[nH]ccc5c4)c3)CC2)=C(c2ccc(Cl)cc2)C1
viability, T/C (compound 0.0316 µM): 99.6% and 96.4%
viability, T/C (compound 0.1 µM): 98.9% and 93.4%
viability, T/C (compound 0.316 µM): 99.4% and 96.6%
viability, T/C (compound 1 µM): 95.5% and 98.7%
viability, T/C (compound 3.16 µM): 111% and 105%
viability, T/C (compound 10 µM): 12.8% and 25.5%

IC50 [1]: > 10 µM
IC50 [2]: > 10 µM
IC50 [3]: > 10 µM
IC50 [4]: > 10 µM
IC50 [5]: > 10 µM
IC50 [6]: 5.76 µM
SMILES: C#Cc1c(F)ccc2cc(O)cc(-c3ncc4c(N5CC6CCC(C5)N6)nc(OCC56CCCN5CC(F)C6)nc4c3F)c12 (stereo unspecified) + CNC(=O)c1ccc(Nc2nc(OC3CCCC3)c3c(-c4ccc5nc(C)oc5c4)c[nH]c3n2)c(OC)c1
viability, T/C [7]: 98.8%
viability, T/C [8]: 98.2%
viability, T/C [9]: 86.5%
viability, T/C [10]: 91%
viability, T/C [11]: 75.9%
viability, T/C [12]: 88.7%
viability, T/C [13]: 76.5%
viability, T/C [14]: 62.8%
viability, T/C [15]: 72.7%
viability, T/C [16]: 75.8%
viability, T/C [17]: 74.3%
viability, T/C [18]: 57.7%
viability, T/C [19]: 90.3%
viability, T/C [20]: 74.9%
viability, T/C [21]: 85.3%
viability, T/C [22]: 68.3%
viability, T/C [23]: 74.8%
viability, T/C [24]: 55%
viability, T/C [25]: 78.3%
viability, T/C [26]: 78.9%
viability, T/C [27]: 68.4%
viability, T/C [28]: 56.8%
viability, T/C [29]: 81.4%
viability, T/C [30]: 55.2%
viability, T/C [31]: 54.4%
viability, T/C [32]: 73.1%
viability, T/C [33]: 52.8%
viability, T/C [34]: 70.8%
viability, T/C [35]: 68.3%
viability, T/C [36]: 53%
viability, T/C [37]: 75.5%
viability, T/C [38]: 77.7%
viability, T/C [39]: 68.8%
viability, T/C [40]: 68.4%
viability, T/C [41]: 60.9%
viability, T/C [42]: 40.6%

IC50 [1]: > 10 µM
IC50 [2]: > 10 µM
IC50 [3]: > 10 µM
IC50 [4]: 1.51 µM
IC50 [5]: 2.68 µM
IC50 [6]: 0.118 µM
SMILES: COc1ccc([C@@H](O)c2cc(-c3ncnc4cc(N5CCOCC5)ccc34)c(F)cc2Cl)nn1 + CNC(=O)c1ccc(Nc2nc(OC3CCCC3)c3c(-c4ccc5nc(C)oc5c4)c[nH]c3n2)c(OC)c1
viability, T/C [7]: 94.7%
viability, T/C [8]: 89.6%
viability, T/C [9]: 86.6%
viability, T/C [10]: 97%
viability, T/C [11]: 81.1%
viability, T/C [12]: 52.8%
viability, T/C [13]: 54.9%
viability, T/C [14]: 65.2%
viability, T/C [15]: 67.8%
viability, T/C [16]: 55.8%
viability, T/C [17]: 65.5%
viability, T/C [18]: 63.8%
viability, T/C [19]: 68.4%
viability, T/C [20]: 52.1%
viability, T/C [21]: 57%
viability, T/C [22]: 50.2%
viability, T/C [23]: 69.4%
viability, T/C [24]: 41.3%
viability, T/C [25]: 84.6%
viability, T/C [26]: 64%
viability, T/C [27]: 64.6%
viability, T/C [28]: 51.1%
viability, T/C [29]: 48.4%
viability, T/C [30]: 37.6%
viability, T/C [31]: 72.8%
viability, T/C [32]: 68.9%
viability, T/C [33]: 37.1%
viability, T/C [34]: 55.2%
viability, T/C [35]: 65.3%
viability, T/C [36]: 39%
viability, T/C [37]: 55.3%
viability, T/C [38]: 49.2%
viability, T/C [39]: 43.7%
viability, T/C [40]: 46.4%
viability, T/C [41]: 47.7%
viability, T/C [42]: 38.9%
